In article PMC6736568, “Discovery of Novel Anti-cryptosporidial Activities From Natural Products by in vitro High-Throughput Phenotypic Screening” (Frontiers in Microbiology, 2019):
Counter-ions that a name gives are not always drawn. Like-named read-outs stand apart in the source and are kept apart here.

Assays:
Cryptosporidium parvum = assay: qRT-PCR assay of the growth of C. parvum in vitro in HCT-8 host cells (primary and secondary screening, EC50); assay type: cell-based; details: Cryptosporidium parvum, HCT-8; for inhibition at 10 µM: primary screening at 10 uM, read-out: Inhibition (%); for inhibition at 3.3 µM: secondary screening at 3.3 uM, read-out: % Inhibition (3.3 uM)
[1] = primary screening at 10 uM, treated vs control

| Hs18S ΔCT (HCT-8 host cells (Hs18S); human, 41 h, 10 μM) | SMILES | inhibition at 10 µM (Cryptosporidium parvum) [%] | Hs18S ΔCT (HCT-8 host cells (Hs18S); [1]) | cytotoxicity at 10 µM (in vitro) [%] | inhibition at 3.3 µM (Cryptosporidium parvum) [%] | cytotoxicity at 41 h, 10 µM (in vitro) [%] | cytotoxicity at 41 h, 10 µM (in vitro; human) [%] |
| --- | --- | --- | --- | --- | --- | --- | --- |
|  | C=C(C)[C@@H]1CC[C@]2(C(=O)O)CC[C@]3(C)[C@H](CC[C@@H]4[C@@]5(C)CC[C@H](O)C(C)(C)[C@@H]5CC[C@]43C)[C@@H]12 [BETULINIC ACID] | 33 | -0.23 | -17.4 |  |  |  |
|  | CCOC(=O)C1C(C=C(C)C)C1(C)C (centres unmarked) [CHRYSANTHEMIC ACID, ETHYL ESTER] | 24.6 | -0.97 |  | 91 | -95.7 |  |
| 0.16 | C=CC[C@@H]1/C=C(\C)C[C@H](C)C[C@H](OC)[C@H]2O[C@@](O)(C(=O)C(=O)N3CCCC[C@H]3C(=O)O[C@H](/C(C)=C/[C@@H]3CC[C@@H](O)[C@H](OC)C3)[C@H](C)[C@@H](O)CC1=O)[C@H](C)C[C@@H]2OC [TACROLIMUS] | 75.6 |  |  | -14 |  | 10.4 |
| 0.48 | Cc1cc(O)c2c(O)c3c(O)cccc3cc2c1 [CHRYSAROBIN] | -8.96 |  |  |  |  | 28.2 |
|  | COc1cc(/C=C/C(=O)CC(=O)/C=C/c2ccc(O)c(OC)c2)ccc1O [CURCUMIN] | 24.3 | 0.03 |  |  |  | 2.4 |
|  | COc1ccc2c(c1)O[C@@H]1COc3cc(OC)c(OC)cc3[C@@H]1C2=O [MUNDOSERONE] | 13.7 | 0.17 | 11.4 |  |  |  |
| 0.10 | COc1cc(O)cc(OC)c1OC [ANTIAROL] | 8.48 |  |  |  |  | 6.9 |
| 0.18 | COc1cc(O)c2c(=O)c(O)c(-c3ccccc3)oc2c1 [IZALPININ] | 18.4 |  |  |  |  | 11.5 |
|  | COc1cc(CNC(=O)CCCC/C=C/C(C)C)ccc1O [CAPSAICIN] | -54.2 | 0.00 | 0.1 |  |  |  |
| 0.14 | C=C[C@@]1(C)CC(=O)[C@]2(O)[C@@]3(C)[C@@H](O)CCC(C)(C)[C@@H]3[C@H](O)[C@H](OC(C)=O)[C@@]2(C)O1 [COLFORSIN] | 24.8 |  |  |  |  | 9.4 |
|  | CC(C)=CCC/C(C)=C/COc1ccc2ccc(=O)oc2c1 | 3.93 | 0.02 | 1.2 |  |  |  |
| 0.21 | COc1c(OC)c2occc2c2oc(=O)ccc12 [PIMPINELLIN] | 43.6 |  |  |  |  | 13.3 |
|  | CC[C@@]1(O)C(=O)OCc2c1cc1n(c2=O)Cc2cc3ccccc3nc2-1 [CAMPTOTHECIN] | 76 | 1.35 | 60.8 | 59 |  |  |
| -0.36 | OC[C@H]1O[C@@H](Oc2cc(O)cc(/C=C/c3ccc(O)cc3)c2)[C@H](O)[C@@H](O)[C@@H]1O [PICEID] | 4.1 |  |  |  |  | -28.7 |
| 0.06 | COc1cc(O)c(C)c(O)c1 [2,6-DIHYDROXY-4-METHOXYTOLUENE] | 19 |  |  |  |  | 4.4 |
| -0.01 | COc1ccc2c(=O)c(CC(=O)O)coc2c1 [ANHYDROBRAZILIC ACID] | 11.9 |  |  |  |  | -0.5 |
|  | C/C=C1\[C@H]2C=C(C)C[C@]1(N)c1ccc(=O)[nH]c1C2 [HUPERZINE A] | 37.6 | 0.19 | 12.4 |  |  |  |
| -0.15 | NCCSSCCN [CYSTAMINE DIHYDROCHLORIDE] | 5.08 |  |  |  |  | -11.2 |
|  | CC1=C2C(=CO[C@H](C)[C@H]2C)C(O)=C(C(=O)O)C1=O [CITRININ] | 8.51 | 0.13 | 8.3 |  |  |  |
|  | O[C@H]1[C@H](O)[C@@H](O)[C@H](O)[C@@H](O)[C@H]1O [INOSITOL] | 11.9 | 0.08 |  |  |  | 5.5 |
| -0.21 | O=c1oc2ccccc2cc1O [3-HYDROXYCOUMARIN] | -39.6 |  |  |  |  | -15.7 |
|  | COc1cc2c(cc1O)C[C@H]1c3c(cc(O)c(OC)c3-2)CCN1C [BOLDINE] | -28.6 | -0.34 | -26.4 |  |  |  |
|  | COc1cc(OC)c2c(c1)O[C@H](c1ccc(OC)c(OC)c1)[C@@H](O)C2 | 17.5 | -0.47 | -38.4 |  |  |  |
| 0.02 | O=c1ccn([C@@H]2O[C@H](CO)[C@@H](O)[C@H]2O)c(=O)[nH]1 [URIDINE] | 44.8 |  |  |  |  | 1.4 |

| Hs18S ΔCT (HCT-8 host cells (Hs18S); human, 41 h, 10 μM) | SMILES | inhibition at 10 µM (Cryptosporidium parvum) [%] | Hs18S ΔCT (HCT-8 host cells (Hs18S); [1]) | cytotoxicity at 10 µM (in vitro) [%] | inhibition at 3.3 µM (Cryptosporidium parvum) [%] | cytotoxicity at 41 h, 10 µM (in vitro) [%] | cytotoxicity at 41 h, 10 µM (in vitro; human) [%] |
| --- | --- | --- | --- | --- | --- | --- | --- |
| -0.12 | C=C[C@H]1C[N@@]2CC[C@H]1C[C@H]2[C@H](O)c1ccnc2ccc(OC)cc12 [QUININE SULFATE] | -15.4 |  |  |  |  | -8.7 |
|  | COc1cc2c(cc1OC)[C@@]13CCN4CC5=CCO[C@H]6CC(=O)N2[C@H]1[C@H]6[C@H]5C[C@H]43 [BRUCINE] | 49.9 | -0.11 | -8.2 |  |  |  |
| 0.43 | CC(C)=CCC/C(C)=C\CO [NEROL] | -20.6 |  |  |  |  | 25.8 |
| -0.18 | OC[C@@H](O)[C@@H](O)[C@H](O)[C@@H](O)CO [SORBITOL] | -33.8 |  |  |  |  | -13.2 |
|  | COC(=O)[C@]1(C)CC[C@]2(C)CC[C@]3(C)C4=CC=C5C(=CC(=O)C(O)=C5C)[C@]4(C)CC[C@@]3(C)[C@@H]2C1 [PRISTIMERIN] | 94.7 | 0.55 | 31.6 | 30 |  |  |
|  | O=C(O)c1ccc2c(c1)OCO2 [PIPERONYLIC ACID] | 30.3 | -0.04 | -3.1 |  |  |  |
| 0.17 | Cc1cc(O)c2c(c1)C(=O)c1cccc(O)c1C2=O [CHRYSOPHANOL] | -71.6 |  |  |  |  | 11.4 |
|  | CC(=O)N[C@@H](CC(=O)N[C@@H](CCC(=O)O)C(=O)O)C(=O)O [SPAGLUMIC ACID] | 31.3 | 0.18 | 11.9 |  |  |  |
|  | CC(=O)c1c(O)c(C)c(O)c2c1OC1=CC(=O)C(C(C)=O)C(=O)C12C (centres unmarked) [USNIC ACID] | 18.8 | -0.31 | -23.9 |  |  |  |
|  | COc1cc2ccc(=O)oc2c(OC)c1OC [FRAXIDIN METHYL ETHER] | -37.3 | -0.48 | -39.5 |  |  |  |
|  | Cc1c[nH]cn1 [4-METHYLIMIDAZOLE] | -27.8 | 0.18 | 11.5 |  |  |  |
| -0.05 | O=c1ccc2ccccc2o1 [COUMARIN] | 13 |  |  |  |  | -3.8 |
| 0.31 | COC(=O)C(O)c1ccccc1 (centres unmarked) [MANDELIC ACID, METHYL ESTER] | -2.26 |  |  |  |  | 19.1 |
| 0.27 | CC12CCC3C(CC3(C)C)C(C)(CCC1=O)O2 (centres unmarked) [3,7-EPOXYCARYOPHYLLAN-6-ONE] | 13.1 |  |  |  |  | 17 |
|  | COC1=CC(=O)O[C@@H](/C=C/c2ccccc2)C1 [KAWAIN] | 16 | -0.15 | -10.9 |  |  |  |
| -0.24 | COc1c2ccoc2c(OC)c2oc(=O)ccc12 [ISOPIMPINELLIN] | -23.2 |  |  |  |  | -18.1 |
|  | CC(C)(C#N)O[C@@H]1O[C@H](CO)[C@@H](O)[C@H](O)[C@H]1O [LINAMARIN] | 6.23 | 0.59 |  |  |  | 33.5 |
| -0.25 | C=C1CCC2C(CC2(C)C)C(=O)CCC1O (centres unmarked) [ISOKOBUSONE] | -33.5 |  |  |  |  | -18.7 |
|  | Nc1ccccc1C(=O)CC(N)C(=O)O (centres unmarked) [KYNURENINE] | -14.4 | 0.48 | 28.1 |  |  |  |
| 0.81 | CC[C@]1(O)C[C@@H]2CN(CCc3c([nH]c4ccccc34)[C@@](C(=O)OC)(c3cc4c(cc3OC)N(C)[C@H]3[C@@](O)(C(=O)OC)[C@H](OC(C)=O)[C@]5(CC)C=CCN6CC[C@]43[C@@H]65)C2)C1 [VINBLASTINE SULFATE] | 71.7 |  |  | 67 |  | 43 |
| 0.02 | CC1/C(=N/O)C[C@@H]2C[C@H]1C2(C)C (some centres unmarked) [3-PINANONE OXIME] | -6.18 |  |  |  |  | 1.5 |
| -0.27 | COc1cc(O)c(C(=O)c2ccccc2)cc1O [CEAROIN] | -22.5 |  |  |  |  | -21 |
|  | COc1cc(OC)c2c(OC)c(-c3ccc4c(c3)OCO4)c(=O)oc2c1 [DERRUSNIN] | 14.8 | -0.10 | -7.3 |  |  |  |
|  | Cc1nccc2c1[nH]c1cc(O)ccc12 [HARMOL HYDROCHLORIDE] | -55.1 | -0.14 | -10.1 |  |  |  |

| SMILES | Hs18S ΔCT (HCT-8 host cells (Hs18S); human, 41 h, 10 μM) | inhibition at 10 µM (Cryptosporidium parvum) [%] | Hs18S ΔCT (HCT-8 host cells (Hs18S); [1]) | cytotoxicity at 10 µM (in vitro) [%] | inhibition at 3.3 µM (Cryptosporidium parvum) [%] | cytotoxicity at 41 h, 10 µM (in vitro) [%] | cytotoxicity at 41 h, 10 µM (in vitro; human) [%] |
| --- | --- | --- | --- | --- | --- | --- | --- |
| C=C(C)[C@@H]1CC=C(CO)CC1 [PERILLYL ALCOHOL] | -0.35 | 29.5 |  |  |  |  | -27.4 |
| O=C(O)CCC1NCC2CC1CN1CCCCC21 (centres unmarked) [LUPANYL ACID HYDROCHLORIDE] | 0.09 | 5.4 |  |  |  |  | 6 |
| COc1c2c(cc3c1OCO3)CC[N+](C)=C2 [COTARNINE CHLORIDE] | -0.20 | -14.5 |  |  |  |  | -15.2 |
| O=c1c(-c2ccc(O)cc2)coc2cc(O)ccc12 [DAIDZEIN] | 0.01 | 39.2 |  |  |  |  | 0.7 |
| OC[C@H]1O[C@@H](OCCc2ccc(O)cc2)[C@H](O)[C@@H](O)[C@@H]1O [SALIDROSIDE] | -0.22 | 14.8 |  |  |  |  | -16.1 |
